pIC50: −log10 of the molar value.
System: SUM149PT spheroids with HUVEC/MSC, viability
Experiment: Anticancer human tumor SUM149PT cell line growth inhibition [GQUAD];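 also: spheroids exposed to drugs for seven days before readout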;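 as to viability, T/C: percent viability relative to DMSO vehicle control taken as 100%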
Conditions: for pIC50: curve of first compound; for viability, T/C: stronger effect = lower value
Outline: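 Tumor cells were grown as complex spheroids with HUVEC endothelial cells and mesenchymal stem cells as stroma. G-quadruplex stabilizers were combined with targeted agents over half-log dilutions from near the clinical Cmax, or from 10 microM.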

[1] = second compound 0.0316 µM, first compound 0.0316 µM
[2] = second compound 0.0316 µM, first compound 0.1 µM
[3] = second compound 0.0316 µM, first compound 0.316 µM
[4] = second compound 0.0316 µM, first compound 1 µM
[5] = second compound 0.0316 µM, first compound 3.16 µM
[6] = second compound 0.0316 µM, first compound 10 µM
[7] = second compound 0.1 µM, first compound 0.0316 µM
[8] = second compound 0.1 µM, first compound 0.1 µM
[9] = second compound 0.1 µM, first compound 0.316 µM
[10] = second compound 0.1 µM, first compound 1 µM
[11] = second compound 0.1 µM, first compound 3.16 µM
[12] = second compound 0.1 µM, first compound 10 µM
[13] = second compound 0.316 µM, first compound 0.0316 µM
[14] = second compound 0.316 µM, first compound 0.1 µM
[15] = second compound 0.316 µM, first compound 0.316 µM
[16] = second compound 0.316 µM, first compound 1 µM
[17] = second compound 0.316 µM, first compound 3.16 µM
[18] = second compound 0.316 µM, first compound 10 µM
[19] = second compound 1 µM, first compound 0.0316 µM
[20] = second compound 1 µM, first compound 0.1 µM
[21] = second compound 1 µM, first compound 0.316 µM
[22] = second compound 1 µM, first compound 1 µM
[23] = second compound 1 µM, first compound 3.16 µM
[24] = second compound 1 µM, first compound 10 µM
[25] = second compound 3.16 µM, first compound 0.0316 µM
[26] = second compound 3.16 µM, first compound 0.1 µM
[27] = second compound 3.16 µM, first compound 0.316 µM
[28] = second compound 3.16 µM, first compound 1 µM
[29] = second compound 3.16 µM, first compound 3.16 µM
[30] = second compound 3.16 µM, first compound 10 µM
[31] = second compound 10 µM, first compound 0.0316 µM
[32] = second compound 10 µM, first compound 0.1 µM
[33] = second compound 10 µM, first compound 0.316 µM
[34] = second compound 10 µM, first compound 1 µM
[35] = second compound 10 µM, first compound 3.16 µM
[36] = second compound 10 µM, first compound 10 µM

C=CC(=O)N1CCN(c2nc(=O)n(-c3c(C)ccnc3C(C)C)c3nc(-c4c(O)cccc4F)c(F)cc23)C(C)C1 (stereo not drawn) + Cc1cnc(CNC(=O)c2c(=O)c3ccc(N4CCCN(C)CC4)nc3n3c2sc2ccccc23)cn1
pIC50 (second compound 0.0316 µM): < 5.00 | pIC50 (second compound 0.1 µM): < 5.00 | pIC50 (second compound 0.316 µM): < 5.00 | pIC50 (second compound 1 µM): > 7.50 | pIC50 (second compound 3.16 µM): > 7.50 | pIC50 (second compound 10 µM): > 7.50 | viability, T/C [1]: 92.7% | viability, T/C [2]: 82.8% | viability, T/C [3]: 103% | viability, T/C [4]: 103% | viability, T/C [5]: 123% | viability, T/C [6]: 106% | viability, T/C [7]: 62.4% | viability, T/C [8]: 66.6% | viability, T/C [9]: 76.5% | viability, T/C [10]: 77.1% | viability, T/C [11]: 85.4% | viability, T/C [12]: 70% | viability, T/C [13]: 61.9% | viability, T/C [14]: 54.8% | viability, T/C [15]: 56.5% | viability, T/C [16]: 65.9% | viability, T/C [17]: 66.9% | viability, T/C [18]: 59.3% | viability, T/C [19]: 50% | viability, T/C [20]: 46.1% | viability, T/C [21]: 48.7% | viability, T/C [22]: 51.6% | viability, T/C [23]: 56.3% | viability, T/C [24]: 46.7% | viability, T/C [25]: 40.7% | viability, T/C [26]: 38.4% | viability, T/C [27]: 42.5% | viability, T/C [28]: 45.6% | viability, T/C [29]: 47% | viability, T/C [30]: 41.2% | viability, T/C [31]: 0.28% | viability, T/C [32]: 2.73% | viability, T/C [33]: 1.23% | viability, T/C [34]: 2.1% | viability, T/C [35]: 3.34% | viability, T/C [36]: 0.29%

CCc1c2c(nc3ccc(O)cc13)-c1cc3c(c(=O)n1C2)COC(=O)[C@]3(O)CC + Cc1cnc(CNC(=O)c2c(=O)c3ccc(N4CCCN(C)CC4)nc3n3c2sc2ccccc23)cn1
pIC50 (second compound 0.0316 µM): > 9.00 | pIC50 (second compound 0.1 µM): > 9.00 | pIC50 (second compound 0.316 µM): > 9.00 | pIC50 (second compound 1 µM): > 9.00 | pIC50 (second compound 3.16 µM): > 9.00 | pIC50 (second compound 10 µM): > 9.00 | viability, T/C (second compound 0.0316 µM, first compound 0.000999 µM): 45% | viability, T/C (second compound 0.0316 µM, first compound 0.00316 µM): 30.6% | viability, T/C (second compound 0.0316 µM, first compound 0.00999 µM): 42.1% | viability, T/C [1]: 30.6% | viability, T/C (second compound 0.0316 µM, first compound 0.0999 µM): 25.9% | viability, T/C [3]: 12.1% | viability, T/C (second compound 0.1 µM, first compound 0.000999 µM): 38.9% | viability, T/C (second compound 0.1 µM, first compound 0.00316 µM): 40.9% | viability, T/C (second compound 0.1 µM, first compound 0.00999 µM): 44.6% | viability, T/C [7]: 38.9% | viability, T/C (second compound 0.1 µM, first compound 0.0999 µM): 25.1% | viability, T/C [9]: 10.2% | viability, T/C (second compound 0.316 µM, first compound 0.000999 µM): 38.7% | viability, T/C (second compound 0.316 µM, first compound 0.00316 µM): 42.8% | viability, T/C (second compound 0.316 µM, first compound 0.00999 µM): 41.1% | viability, T/C [13]: 33.8% | viability, T/C (second compound 0.316 µM, first compound 0.0999 µM): 21.8% | viability, T/C [15]: 10.8% | viability, T/C (second compound 1 µM, first compound 0.000999 µM): 37% | viability, T/C (second compound 1 µM, first compound 0.00316 µM): 41.2% | viability, T/C (second compound 1 µM, first compound 0.00999 µM): 37.1% | viability, T/C [19]: 35.5% | viability, T/C (second compound 1 µM, first compound 0.0999 µM): 19.7% | viability, T/C [21]: 8.28% | viability, T/C (second compound 3.16 µM, first compound 0.000999 µM): 33.1% | viability, T/C (second compound 3.16 µM, first compound 0.00316 µM): 38.7% | viability, T/C (second compound 3.16 µM, first compound 0.00999 µM): 37.1% | viability, T/C [25]: 31% | viability, T/C (second compound 3.16 µM, first compound 0.0999 µM): 21.9% | viability, T/C [27]: 3.55% | viability, T/C (second compound 10 µM, first compound 0.000999 µM): 0.16% | viability, T/C (second compound 10 µM, first compound 0.00316 µM): 3.09% | viability, T/C (second compound 10 µM, first compound 0.00999 µM): 0.98% | viability, T/C [31]: 1.56% | viability, T/C (second compound 10 µM, first compound 0.0999 µM): 1.51% | viability, T/C [33]: 1.72%

COc1cc(C2c3cc4c(cc3C(OC3OC5COC(C)OC5C(O)C3O)C3COC(=O)C23)OCO4)cc(OC)c1O (stereo not drawn) + Cc1cnc(CNC(=O)c2c(=O)c3ccc(N4CCCN(C)CC4)nc3n3c2sc2ccccc23)cn1
pIC50 (second compound 0.0316 µM): 6.44 | pIC50 (second compound 0.1 µM): 6.52 | pIC50 (second compound 0.316 µM): 6.90 | pIC50 (second compound 1 µM): > 7.50 | pIC50 (second compound 3.16 µM): > 7.50 | pIC50 (second compound 10 µM): > 7.50 | viability, T/C [1]: 82.8% | viability, T/C [2]: 59.1% | viability, T/C [3]: 48.2% | viability, T/C [4]: 45.8% | viability, T/C [5]: 27.3% | viability, T/C [6]: 13.3% | viability, T/C [7]: 67.7% | viability, T/C [8]: 52.1% | viability, T/C [9]: 52.5% | viability, T/C [10]: 42% | viability, T/C [11]: 24% | viability, T/C [12]: 11.5% | viability, T/C [13]: 57.8% | viability, T/C [14]: 47.4% | viability, T/C [15]: 44.5% | viability, T/C [16]: 40.1% | viability, T/C [17]: 25.6% | viability, T/C [18]: 12.4% | viability, T/C [19]: 45.7% | viability, T/C [20]: 45.9% | viability, T/C [21]: 42.2% | viability, T/C [22]: 39% | viability, T/C [23]: 24.5% | viability, T/C [24]: 13.4% | viability, T/C [25]: 39.5% | viability, T/C [26]: 38.1% | viability, T/C [27]: 35.6% | viability, T/C [28]: 39.6% | viability, T/C [29]: 24.9% | viability, T/C [30]: 14.3% | viability, T/C [31]: 0.14% | viability, T/C [32]: 12.2% | viability, T/C [33]: 31.4% | viability, T/C [34]: 19% | viability, T/C [35]: 1.9% | viability, T/C [36]: 3.26%

Cc1cccc(N(C)C(=O)C2C(O)CCN2c2nc(C)cc(C(F)(F)F)c2C#N)c1 (stereo not drawn) + Cc1cnc(CNC(=O)c2c(=O)c3ccc(N4CCCN(C)CC4)nc3n3c2sc2ccccc23)cn1
pIC50 (second compound 0.0316 µM): < 5.00 | pIC50 (second compound 0.1 µM): < 5.00 | pIC50 (second compound 0.316 µM): < 5.00 | pIC50 (second compound 1 µM): > 7.50 | pIC50 (second compound 3.16 µM): > 7.50 | pIC50 (second compound 10 µM): > 7.50 | viability, T/C [1]: 104% | viability, T/C [2]: 86.5% | viability, T/C [3]: 85% | viability, T/C [4]: 88.9% | viability, T/C [5]: 88% | viability, T/C [6]: 95.4% | viability, T/C [7]: 63.1% | viability, T/C [8]: 61.9% | viability, T/C [9]: 78.3% | viability, T/C [10]: 64.9% | viability, T/C [11]: 75.6% | viability, T/C [12]: 66.5% | viability, T/C [13]: 61% | viability, T/C [14]: 62.7% | viability, T/C [15]: 57.4% | viability, T/C [16]: 58.6% | viability, T/C [17]: 59.5% | viability, T/C [18]: 61.3% | viability, T/C [19]: 45.5% | viability, T/C [20]: 47.5% | viability, T/C [21]: 48.6% | viability, T/C [22]: 45.4% | viability, T/C [23]: 49.6% | viability, T/C [24]: 49.4% | viability, T/C [25]: 39.2% | viability, T/C [26]: 41.1% | viability, T/C [27]: 41.8% | viability, T/C [28]: 42.5% | viability, T/C [29]: 41.2% | viability, T/C [30]: 46.9% | viability, T/C [31]: 11% | viability, T/C [32]: 11.9% | viability, T/C [33]: 33.3% | viability, T/C [34]: 30.9% | viability, T/C [35]: 25% | viability, T/C [36]: 0.29%

— PubChem BioAssay AID2060484 (Molecular Pharmacology Branch, DTP, NCI, 2025)
